Test results: patent publication US20100190778A1, “3,4-DIHYDROBENZO[1,2,3]THIADIAZINE-1,1-DIOXIDE DERIVATIVES, PROCESS FOR PREPARATION THEREOF, MEDICAMENTS CONTAINING SAID DERIVATIVES AND THEIR USE” (EGIS GYOGYSZERGYAR NYILVANOSAN MUKODO RESZVENTARSASAG, priority 2006, published 2010)

Tests used:
male Sprague-Dawley rats = experiment: elevated maze test in the rat (anxiolytic effect); assay type: in vivo; conditions: per os, 60-min pretreatment, 5-min measurement, MED regarding time spent in the open arms and number of entries into the open arms
Method: Pharmacological activity of the compounds of the general Formula (I) has been evaluated in elevated maze test in the rat.
The tests were carried out according to the method of S. Fellow and coworkers (J. Neurosci. Methods. 1985, 14, 149-167). During the test, a wooden-floor cross elevated by 50 cm from the ground was used. The length and the width of the arms of the cross were 100 and 15 cm, respectively. Two opposite arms of the cross are fitted at the ends and both sides with black plexiglass wall of 40 cm height (closed arms). The central section of the cross measuring 15 by 15 cm is open. The other two opposite arms of the cross are not provided with walls (open arms).
The tests were carried out in male Sprague-Dawley rats weighing 200 to 220 g. After the 60-min pretreatment time (per os treatment), animals were placed in the center of the maze. During the 5-min measurement time, four variables were recorded: the time spent in the open arms; the time spent in the closed arms; the number of entries into the open arms; the number of entries into the closed arms.
Animals normally avoid the open and light parts of the maze, thereby spending little time therein only. The anxiolytic effect of the compounds of the general Formula (I) is indicated by the increase in the time spent (in seconds) in the open arms and/or by the increase in the number of the entries into the open compartments of the maze. The minimum effective dose (MED) was determined for each tested compounds regarding the time spent in the open arms and the number of entries into the open arms. During the test, the known anxiolytic compound I-methyl-5-phenyl-7-chloro-1,3-dihydro-2H-1,4-benzodiazepin-2-one (INN: diazepam) of the Formula (IV)
was used. Treatment of the animals was carried out orally with the doses 0.1, 0.3, 1.0, 3.0 for diazepam and 0.01, 0.1, 1.0 mg/kg for the compounds of the general Formula (I).

CN1C(=O)CN=C(c2ccccc2)c2cc(Cl)ccc21 [Diazepam, I-methyl-5-phenyl-7-chloro-1,3-dihydro-2H-1,4-benzodiazepin-2-one, reference compound]
MED (minimum effective dose), anxiolytic effect in elevated maze test (male Sprague-Dawley rats): 1.00 mg/kg p.o.

CC1NNS(=O)(=O)c2cc(Cl)ccc21 (centres unmarked) [Example 1, 7-chloro-4-methyl-3,4-dihydrobenzo[1,2,3]thiadiazine-1,1-dioxide]
melting point: 155 to 156 °C
MED (minimum effective dose), anxiolytic effect in elevated maze test (male Sprague-Dawley rats): 0.3 mg/kg p.o.

CC1NNS(=O)(=O)c2c1ccc(Cl)c2Cl (centres unmarked) [Example 3, 7,8-Dichloro-4-methyl-3,4-dihydrobenzo[1,2,3]thiadiazine-1,1-dioxide]
melting point: 261 to 263 °C
MED (minimum effective dose), anxiolytic effect in elevated maze test (male Sprague-Dawley rats): 0.01 mg/kg p.o.

Cc1cc(Cl)c(Cl)c2c1C(C)NNS2(=O)=O (centres unmarked) [Example 5, 7,8-Dichloro-4,5-dimethyl-3,4-dihydrobenzo[1,2,3]thiadiazine-1,1-dioxide]
melting point: 197 to 199 °C
MED (minimum effective dose), anxiolytic effect in elevated maze test (male Sprague-Dawley rats): 0.01 mg/kg p.o.

CC1NN(C)S(=O)(=O)c2c1ccc(Cl)c2Cl (centres unmarked) [Example 16, 7,8-Dichloro-2,4-dimethyl-3,4-dihydrobenzo[1,2,3]thiadiazine-1,1-dioxide]
melting point: 134 to 135 °C
MED (minimum effective dose), anxiolytic effect in elevated maze test (male Sprague-Dawley rats): 0.01 mg/kg p.o.

CN1NCc2ccc(Cl)c(Cl)c2S1(=O)=O [Example 20, 7,8-Dichloro-2-methyl-3,4-dihydrobenzo[1,2,3]thiadiazine-1,1-dioxide]
melting point: 124 to 125 °C
MED (minimum effective dose), anxiolytic effect in elevated maze test (male Sprague-Dawley rats): 0.01 mg/kg p.o.

CC1c2ccc(Cl)c(Cl)c2S(=O)(=O)NN1C (centres unmarked) [Example 26, 7,8-Dichloro-3,4-dimethyl-3,4-dihydrobenzo[1,2,3]thiadiazine-1,1-dioxide]
melting point: 194 to 195 °C

CCN1NS(=O)(=O)c2c(ccc(Cl)c2Cl)C1C (centres unmarked) [Example 27, 7,8-Dichloro-3-ethyl-4-methyl-3,4-dihydrobenzo[1,2,3]thiadiazine-1,1-dioxide]
melting point: 172 to 174 °C

CCCN1NS(=O)(=O)c2c(ccc(Cl)c2Cl)C1C (centres unmarked) [Example 28, 7,8-Dichloro-4-methyl-3-propyl-3,4-dihydrobenzo[1,2,3]thiadiazine-1,1-dioxide]
melting point: 164 to 165 °C

CCC1c2ccc(Cl)cc2S(=O)(=O)NN1CC (centres unmarked) [Example 29, 3,4-Diethyl-7-chloro-3,4-dihydrobenzo[1,2,3]thiadiazine-1,1-dioxide]
melting point: 109 to 111 °C

CCC1c2ccc(Cl)cc2S(=O)(=O)NN1C(C)C (centres unmarked) [Example 30, 4-Ethyl-3-isopropyl-7-chloro-3,4-dihydrobenzo[1,2,3]thia diazine-1,1-dioxide]
melting point: 99 to 101 °C

Cc1cc(Cl)c(Cl)c2c1C(C)N(C)NS2(=O)=O (centres unmarked) [Example 31, 7,8-Dichloro-3,4,5-trimethyl-3,4-dihydrobenzo[1,2,3]thiadiazine-1,1-dioxide]
melting point: 236 to 238 °C

CN1Cc2ccccc2S(=O)(=O)N1 [Example 32, 3-Methyl-3,4-dihydrobenzo[1,2,3]thiadiazine-1,1-dioxide]
melting point: 176 to 178 °C

CCN1Cc2ccccc2S(=O)(=O)N1 [Example 33, 3-Ethyl-3,4-dihydrobenzo[1,2,3]thiadiazine-1,1-dioxide]
melting point: 146 to 147 °C

COc1ccc2c(c1)CN(C)NS2(=O)=O [Example 34, 3-Methyl-6-methoxy-3,4-dihydrobenzo[1,2,3]thiadiazine-1,1-dioxide]
melting point: 186 to 187 °C

CCN1Cc2cc(OC)ccc2S(=O)(=O)N1 [Example 35, 3-Ethyl-6-methoxy-3,4-dihydrobenzo[1,2,3]thiadiazine-1,1-dioxide]
melting point: 180 to 181 °C

CN1Cc2ccc(Cl)c(Cl)c2S(=O)(=O)N1 [Example 36, 7,8-Dichloro-3-methyl-3,4-dihydrobenzo[1,2,3]thiadiazine-1,1-dioxide]
melting point: 189 to 190 °C

CN1Cc2ccc(Cl)cc2S(=O)(=O)N1 [Example 37, 7-chloro-3-methyl-3,4-dihydrobenzo[1,2,3]thiadiazine-1,1-dioxide]
melting point: 188 to 189 °C

Cc1cc(Cl)c(Cl)c2c1C(C)N(C(C)C)NS2(=O)=O (centres unmarked) [Example 38, 7,8-Dichloro-4,5-dimethyl-3-isopropyl-3,4-dihydrobenzo[1,2,3]thiadiazine-1,1-dioxide]
melting point: 167 to 168 °C

COc1ccc2c(c1)CN(C)N(C)S2(=O)=O [Example 39, 2,3-Dimethyl-6-methoxy-3,4-dihydrobenzo[1,2,3]thiadiazine-1,1-dioxide]
melting point: 142 to 143 °C

CCN1Cc2cc(OC)ccc2S(=O)(=O)N1C [Example 40, 3-Ethyl-2-methyl-6-methoxy-3,4-dihydrobenzo[1,2,3]thiadiazine-1,1-dioxide]
melting point: 123 to 125 °C

CN1Cc2ccccc2S(=O)(=O)N1C [Example 41, 2,3-Dimethyl-3,4-dihydrobenzo[1,2,3]thiadiazine-1,1-dioxide]
melting point: 143 to 145 °C

CCN1Cc2ccccc2S(=O)(=O)N1C [Example 42, 3-Ethyl-2-methyl-3,4-dihydrobenzo[1,2,3]thiadiazine-1,1-dioxide]
melting point: 140 to 142 °C

CC1c2ccc(Cl)c(Cl)c2S(=O)(=O)N(C)N1C (centres unmarked) [Example 43, 7,8-Dichloro-2,3,4-trimethyl-3,4-dihydrobenzo[1,2,3]thiadiazine-1,1-dioxide]
melting point: 135 to 136 °C
